For series [1], the system named is P. aeruginosa (ATCC 700888) massive biofilm. Description: Sequential CDA then biocide on massive biofilm grown in drip flow tubes (modified ASTM 2647-13). Format: cell-based, Pseudomonas aeruginosa. Particulars: 30.0 ppm DBNPA 3 h after 310 nM CDA 2 h (FIG. 18). The text has this: The effect of the sequential addition of CDA and bromine-containing biocide was studied using P. aeruginosa biofilm grown in the drip flow tubes (according to a modification of standard ASTM 2647-13, standard Test Method for Quantification of Pseudomonas aeruginosa Biofilm Grown Using Drip Flow Biofilm Reactor with Low Shear and Continuous Flow). This method produces massive biofilm resulting with harsh conditions that are very difficult to treat. The addition of the bromine-containing biocide took place 120 min after the addition of 310 nM CDA (the biocide that was tested in this study was DBNPA).
• a) A continuous once-through tube system was configured by using silicone coated latex tubes, connected to a peristaltic pump via additional silicone tubing. • b) The silicone coated latex tubes were inoculated by syringe injection of overnight cultures of P. aeruginosa (ATCC 700888), 5*10^7 CFU/ML in 10% TSB (Tryptic Soy Broth). […]
The following treatments were conducted: • 1. […] Each dilution was cultured in duplicate (on R2A agar) for colony growth using the pour plating method. • h) The plates were incubated at 36° C. for 17-20 h. • i) The appropriate number of colonies were counted. […]

The subject of series [2] is P. aeruginosa strain PA14 biofilm. Description: Simultaneous application of CDA and biocide on 3-day biofilm in 24-well plates. It is filed as cell-based, Pseudomonas aeruginosa. Particulars: 15 ppm DBNPA, 310 nM CDA, two hours (FIG. 3). Here is the method:
(§1) The effect of bromine-containing biocide in combination with CDA on pre-grown biofilms was studied. The experiment was carried out utilizing (A) the P. aeruginosa strain PA14 and (B) mixed bacterial species derived from environmental and industrial water.
(§2) Bacteria were cultured in EPRI medium supplemented with Hutners mineral solution and glucose (0.2%). Microorganisms were incubated at room temperature (22° C.), under aerobic conditions with shaking. The biofilm culture system used included polystyrene 24-well plates that were treated with protein to enhance attachment and growth of biofilm bacteria according to the method described in Davies D G, Marques C N, 2009, J Bacteriol 191:1393-1403.
(§3) Following inoculation with 1 mL bacterial culture, spent medium was removed and replaced with sterile medium every 24 hours for 3 days, and a final medium exchange was performed 3 hours prior to treatment. Additionally, the medium was exchanged prior to treatment in order to remove planktonic bacteria. Treatments consisted of 100 μL of 310 nM CDA and bromine-containing biocide, or bromine-containing biocide alone at concentrations used in commercial water treatment, water was used as a carrier, for a contact time determined by activity of each biocide and ranging from 1 hour to 24 hours, as detailed below for each of the tested biocides.
Following the treatment, the medium from each well was removed by pipet and 1 mL of DE neutralization broth was added in order to stop the treatment. Bacteria from each well were then removed by scraping the biofilm formed in the well with a sterile cell-scraper, and 1.0 mL of culture was transferred to chilled (4° C.) 9.0 mL DE neutralizing broth and homogenized for 15 seconds at 40,000 rpm on ice. Further dilutions were performed prior to enumeration (further neutralizing biocide activity). Recovery of bacteria were tested at different dilutions of biocide in water, in LB medium with thioglycolate and in DE neutralizing broth to ensure the active agent was properly neutralized. Viable bacteria were enumerated via the drop plate method. Each biocide was evaluated using 24-well plates with 8 wells each for the control cultures (Ctl) inoculated with P. aeruginosa but not treated, a CDA minus test (−CDA) treated with bromine-containing biocide only, and a CDA plus test treated with bromine-containing biocide and CDA (+CDA).

Series [3] concerns undefined mixed microbial biofilm cultures derived from an environmental water source. Description: Simultaneous CDA and biocide on mixed biofilm from environmental water, 24-well plates. Format: cell-based. The following applies: 15 ppm DBNPA, 310 nM CDA, two hours (FIG. 5A). Here is the method: as §1, §2
as §3, with “biocides. […]” for “biocides.”

Series [4] is described as follows: Storage stability of biocide/CDA liquid concentrates (HPLC). Format: physicochemical. Particulars: Example 6 concentrate C103-PEG200-H2O-CDA-BHT 20:50:30:0.1:0.1; 25° C., two months. Here is the method: 22 mg of cis-2-decenoic acid (CiVentiChem, 96.72% purity) were charged into 50 ml flask, equipped with a stirrer 3.99 gr of C-103 (ICL, batch 640160147) were added, followed by 9.97 gr of PEG200 (Merck 8.07483.5000 Lot 56904983 451), 5.95 gr of DI water and 22 mg of BHT (Aldrich B1378-100G, BCBH9491V). The obtained solution was stirred till complete clarification; sonication at +30° C. is recommended if some particles are observed. Clear colorless solution of a total […] and 20:50:30:0.1:0.1 weight ratio of C103-PEG200-H2O-CDA-BHT was obtained.
The solution was tested to determine the stability of the biocide and CDA and under storage at 25° C. over a two-month period.
47.6 mg or cis-2-decenoic acid (CiVentiChem, 96.72% purity) were charged into 50 ml flask, equipped with a stirrer. 9.01 gr of Bronopol (ICL, batch 17101607) were added, followed by 18.03 gr of propylene glycol (Biolab 16200201 Lot 1007861), 3.0 gr of DI water and 31.2 mg of BHT (Aldrich B1378-100G, BCBH9491V). After stirring for several minutes, undissolved traces of BHT were filtered through filtering paper for BHT particle removal. Clear colorless solution of a total 30 gr and 30:60:10:0.158:0.1 weight ratio of Bronopol-PG-H2O-CDA-BHT was obtained.

In series [5] the test system is biofilm culture derived from fresh-water mixed microbial community obtained from cooling tower water. Kind of series: Simultaneous CDA and biocide on mixed biofilm from cooling tower water, 24-well plates. It is filed as cell-based. Particulars: 15 ppm DBNPA, 310 nM CDA, two hours (FIG. 5B). Here is the method:
as §1, §2
as §3, with “biocides. […]” for “biocides.”

The subject of series [6] is Pseudomonas aeruginosa biofilm. Kind of series: Sequential application of CDA then biocide on 3-day-old biofilm grown in CDC biofilm reactor (single tube method). Format: cell-based. Particulars: biocide 10 ppm.

Structures are written as SMILES.

As for `N#CC(Br)(Br)C(N)=O` [DBNPA, 2,2-dibromo-3-nitrilopropionamide], the “enhancement of biocidal effect by combined treatment over biocide alone” value in series [1] was ~2 log orders. For the same compound, the “effect of biocide and CDA compared with biocide alone” value in series [2] is recorded as “improved effect”; in series [3] it was “improved result”; in series [5], “improved result”. Further, the “degradation under storage (HPLC)” value in series [4] is “Neither DBNPA nor CDA underwent degradation”. The “Log reduction vs. control: biocide alone” value in series [6] (1 h contact time, 3-day-old biofilm) is recorded as ~3 log units. Further, the Enhancement in series [6] (310 nM CDA combination vs biocide alone) was ~2 log units. Besides, the “Log reduction vs. control: combination of the 310 nM CDA and biocide” value in series [6] (1 h CDA 310 nM then 1 h biocide) is reported as ~5 log units. For the same compound, the “enhancement by combined treatment relative to biocide alone” value in series [6] (text of Example 2, 310 nM commercial CDA (97% by GC)) was “two”. For the same compound, in series [6] (text of Example 2, 1 h), the “biofilm reduction by biocide alone” value was “reduces the biofilm”.
